Species on record: Rattus norvegicus
Assay: DrugMatrix - Regimen: Daily Repeat
Type: toxicity, organism-based, Sprague-Dawley
Set-up: regimen Daily Repeat, gender Male, age 6-8 weeks
Conditions: in vivo, po, route oral GAVAGE, […]; for ABSOLUTE BASOPHIL / ABSOLUTE EOSINOPHIL / ABSOLUTE LYMPHOCYTE / ABSOLUTE MONOCYTE / ABSOLUTE SEGMENTED NEUTROPHIL / BASOPHIL / EOSINOPHIL / HEMATOCRIT / HEMOGLOBIN / LEUKOCYTE COUNT / LYMPHOCYTE / MEAN CORPUSCULAR HEMOGLOBIN / MEAN CORPUSCULAR HEMOGLOBIN CONCENTRATION / MEAN CORPUSCULAR VOLUME / MONOCYTE / NEUTROPHIL / NUCLEATED RED BLOOD CELLS / PLATELET COUNT: tissue Blood; for ALANINE AMINOTRANSFERASE / ALBUMIN / ALKALINE PHOSPHATASE / ASPARTATE AMINOTRANSFERASE / BLOOD UREA NITROGEN / CARBON DIOXIDE / CHLORIDE / CHOLESTEROL / CREATINE PHOSPHOKINASE / CREATININE / GLUCOSE / LACTATE DEHYDROGENASE / LIPASE / PHOSPHORUS / POTASSIUM / SODIUM / TOTAL BILIRUBIN / TOTAL PROTEIN / URIC ACID: tissue Plasma
[1] = 1 mg/kg, 72 h, dose level Low, time 3 day
[2] = 1 mg/kg, 120 h, dose level Low, time 5 day
[3] = 21 mg/kg, 72 h, dose level High, time 3 day
[4] = 21 mg/kg, 120 h, dose level High, time 5 day

O=C(CCCN1CCC(O)(c2ccc(Cl)cc2)CC1)c1ccc(F)cc1 [HALOPERIDOL]
ABSOLUTE BASOPHIL [1]: 0 CELLS/uL
ABSOLUTE EOSINOPHIL [1]: 94.33 CELLS/uL
ABSOLUTE LYMPHOCYTE [1]: 11131.67 CELLS/uL
ABSOLUTE MONOCYTE [1]: 120.67 CELLS/uL
ABSOLUTE SEGMENTED NEUTROPHIL [1]: 1053.33 CELLS/uL
BASOPHIL [1]: 0%
EOSINOPHIL [1]: 0.67%
HEMATOCRIT [1]: 33.6%
HEMOGLOBIN [1]: 13.7 G/DL
LEUKOCYTE COUNT [1]: 12.4 x10E3/uL
LYMPHOCYTE [1]: 88.33%
MEAN CORPUSCULAR HEMOGLOBIN [1]: 25.53 pg
MEAN CORPUSCULAR HEMOGLOBIN CONCENTRATION [1]: 40.8 G/DL
MEAN CORPUSCULAR VOLUME [1]: 62.6 fL
MONOCYTE [1]: 1%
NEUTROPHIL [1]: 10%
NUCLEATED RED BLOOD CELLS [1]: 0 /100WBC
PLATELET COUNT [1]: 969 x10E3/uL
ALANINE AMINOTRANSFERASE [1]: 88.67 u/L
ALBUMIN [1]: 3.97 G/DL
ALKALINE PHOSPHATASE [1]: 450 u/L
ASPARTATE AMINOTRANSFERASE [1]: 97.33 u/L
BLOOD UREA NITROGEN [1]: 12.33 mg/dL
CARBON DIOXIDE [1]: 31.67 mmol/L
CHLORIDE [1]: 97 MEQ/L
CHOLESTEROL [1]: 75.67 mg/dL
CREATINE PHOSPHOKINASE [1]: 318.67 u/L
CREATININE [1]: 0.13 mg/dL
GLUCOSE [1]: 163.67 mg/dL
LACTATE DEHYDROGENASE [1]: 170 u/L
LIPASE [1]: 15 u/L
PHOSPHORUS [1]: 11.33 mg/dL
POTASSIUM [1]: 6.08 MEQ/L
SODIUM [1]: 142.45 MEQ/L
TOTAL BILIRUBIN [1]: 0.17 mg/dL
TOTAL PROTEIN [1]: 5.67 G/DL
URIC ACID [1]: 1 mg/dL
ABSOLUTE BASOPHIL [2]: 0 CELLS/uL
ABSOLUTE EOSINOPHIL [2]: 0 CELLS/uL
ABSOLUTE LYMPHOCYTE [2]: 12900 CELLS/uL
ABSOLUTE MONOCYTE [2]: 131.67 CELLS/uL
ABSOLUTE SEGMENTED NEUTROPHIL [2]: 1068.33 CELLS/uL
BASOPHIL [2]: 0%
EOSINOPHIL [2]: 0%
HEMATOCRIT [2]: 34.63%
HEMOGLOBIN [2]: 14.03 G/DL
LEUKOCYTE COUNT [2]: 14.1 x10E3/uL
LYMPHOCYTE [2]: 91.67%
MEAN CORPUSCULAR HEMOGLOBIN [2]: 25.73 pg
MEAN CORPUSCULAR HEMOGLOBIN CONCENTRATION [2]: 40.5 G/DL
MEAN CORPUSCULAR VOLUME [2]: 63.57 fL
MONOCYTE [2]: 1%
NEUTROPHIL [2]: 7.33%
NUCLEATED RED BLOOD CELLS [2]: 0 /100WBC
PLATELET COUNT [2]: 1083 x10E3/uL
ALANINE AMINOTRANSFERASE [2]: 51 u/L
ALBUMIN [2]: 4.17 G/DL
ALKALINE PHOSPHATASE [2]: 383.33 u/L
ASPARTATE AMINOTRANSFERASE [2]: 81.33 u/L
BLOOD UREA NITROGEN [2]: 16.33 mg/dL
CARBON DIOXIDE [2]: 25.67 mmol/L
CHLORIDE [2]: 102 MEQ/L
CHOLESTEROL [2]: 77.33 mg/dL
CREATINE PHOSPHOKINASE [2]: 323.67 u/L
CREATININE [2]: 0.18 mg/dL
GLUCOSE [2]: 144 mg/dL
LACTATE DEHYDROGENASE [2]: 223.33 u/L
LIPASE [2]: 11.33 u/L
PHOSPHORUS [2]: 10.8 mg/dL
POTASSIUM [2]: 6.15 MEQ/L
SODIUM [2]: 143.13 MEQ/L
TOTAL BILIRUBIN [2]: 0.17 mg/dL
TOTAL PROTEIN [2]: 5.77 G/DL
URIC ACID [2]: 1.17 mg/dL
ABSOLUTE BASOPHIL [3]: 0 CELLS/uL
ABSOLUTE EOSINOPHIL [3]: 71.67 CELLS/uL
ABSOLUTE LYMPHOCYTE [3]: 13503.67 CELLS/uL
ABSOLUTE MONOCYTE [3]: 143.33 CELLS/uL
ABSOLUTE SEGMENTED NEUTROPHIL [3]: 1014.67 CELLS/uL
BASOPHIL [3]: 0%
EOSINOPHIL [3]: 0.33%
HEMATOCRIT [3]: 37.23%
HEMOGLOBIN [3]: 14.77 G/DL
LEUKOCYTE COUNT [3]: 14.73 x10E3/uL
LYMPHOCYTE [3]: 92.33%
MEAN CORPUSCULAR HEMOGLOBIN [3]: 23.97 pg
MEAN CORPUSCULAR HEMOGLOBIN CONCENTRATION [3]: 39.67 G/DL
MEAN CORPUSCULAR VOLUME [3]: 60.4 fL
MONOCYTE [3]: 0.67%
NEUTROPHIL [3]: 6.67%
NUCLEATED RED BLOOD CELLS [3]: 0 /100WBC
PLATELET COUNT [3]: 1422.33 x10E3/uL
ALANINE AMINOTRANSFERASE [3]: 42.33 u/L
ALBUMIN [3]: 4.2 G/DL
ALKALINE PHOSPHATASE [3]: 358.33 u/L
ASPARTATE AMINOTRANSFERASE [3]: 92.33 u/L
BLOOD UREA NITROGEN [3]: 16.33 mg/dL
CARBON DIOXIDE [3]: 22.67 mmol/L
CHLORIDE [3]: 103.67 MEQ/L
CHOLESTEROL [3]: 58 mg/dL
CREATINE PHOSPHOKINASE [3]: 803 u/L
CREATININE [3]: 0.18 mg/dL
GLUCOSE [3]: 168 mg/dL
LACTATE DEHYDROGENASE [3]: 310 u/L
LIPASE [3]: 11.33 u/L
PHOSPHORUS [3]: 12.4 mg/dL
POTASSIUM [3]: 6.38 MEQ/L
SODIUM [3]: 143.4 MEQ/L
TOTAL BILIRUBIN [3]: 0.13 mg/dL
TOTAL PROTEIN [3]: 5.9 G/DL
URIC ACID [3]: 2.07 mg/dL
ABSOLUTE BASOPHIL [4]: 0 CELLS/uL
ABSOLUTE EOSINOPHIL [4]: 46.33 CELLS/uL
ABSOLUTE LYMPHOCYTE [4]: 13529.67 CELLS/uL
ABSOLUTE MONOCYTE [4]: 94 CELLS/uL
ABSOLUTE SEGMENTED NEUTROPHIL [4]: 1530 CELLS/uL
BASOPHIL [4]: 0%
EOSINOPHIL [4]: 0.33%
HEMATOCRIT [4]: 35.97%
HEMOGLOBIN [4]: 14.07 G/DL
LEUKOCYTE COUNT [4]: 15.2 x10E3/uL
LYMPHOCYTE [4]: 88.67%
MEAN CORPUSCULAR HEMOGLOBIN [4]: 23.57 pg
MEAN CORPUSCULAR HEMOGLOBIN CONCENTRATION [4]: 39.13 G/DL
MEAN CORPUSCULAR VOLUME [4]: 60.3 fL
MONOCYTE [4]: 0.67%
NEUTROPHIL [4]: 10.33%
NUCLEATED RED BLOOD CELLS [4]: 0.33 /100WBC
PLATELET COUNT [4]: 1209.33 x10E3/uL
ALANINE AMINOTRANSFERASE [4]: 53 u/L
ALBUMIN [4]: 4.13 G/DL
ALKALINE PHOSPHATASE [4]: 352.33 u/L
ASPARTATE AMINOTRANSFERASE [4]: 80.33 u/L
BLOOD UREA NITROGEN [4]: 17.33 mg/dL
CARBON DIOXIDE [4]: 23 mmol/L
CHLORIDE [4]: 103.33 MEQ/L
CHOLESTEROL [4]: 69 mg/dL
CREATINE PHOSPHOKINASE [4]: 224.67 u/L
CREATININE [4]: 0.18 mg/dL
GLUCOSE [4]: 201.67 mg/dL
LACTATE DEHYDROGENASE [4]: 239 u/L
LIPASE [4]: 11.33 u/L
PHOSPHORUS [4]: 11.33 mg/dL
POTASSIUM [4]: 6.19 MEQ/L
SODIUM [4]: 143.37 MEQ/L
TOTAL BILIRUBIN [4]: 0.2 mg/dL
TOTAL PROTEIN [4]: 5.63 G/DL
URIC ACID [4]: 1.4 mg/dL

Source: ChEMBL document CHEMBL3885881, “DrugMatrix”
